According to ChEMBL document CHEMBL4825675, “Longipetalol A: A Highly Modified Triterpenoid from Dichapetalum longipetalum” (J Nat Prod, 2021):

Test system: RAW264.7
Assay: Antiinflammatory activity in mouse RAW264.7 cells assessed as inhibition of LPS-induced NO production incubated for 24 hrs in presence of LPS by Griess reagent-based assay
Format: functional, cell-based
Conditions: RAW264.7, 24 h

Structure (SMILES) | IC50 [µM]
C/C(=C\[C@H]1C[C@@](O)([C@@H]2CC[C@]34C[C@]23C=CC2[C@@]4(C)[C@H](O)C[C@H]3C(C)(C)/C(=C/C(=O)c4ccccc4)C(=O)C[C@]23C)C(=O)O1)CO (some centres undefined) | 1.6
C/C(=C\[C@H]1C[C@@](O)([C@@H]2CC[C@]34C[C@]23C=CC2[C@@]3(C)CC(=O)/C(=C\C(=O)c5ccccc5)C(C)(C)[C@@H]3CC(=O)[C@]24C)C(=O)O1)CO (some centres undefined) | 3.5
C/C(=C\[C@H]1C[C@@](O)([C@@H]2CC[C@]34C[C@]23C=CC2[C@]3(C)C(CC(=O)[C@]24C)C(C)(C)[C@@]2(CC(=O)c4ccccc4)O[C@@H]3OC2=O)C(=O)O1)CO (some centres undefined) | 11.4
C[C@@H]1C[C@H]2[C@@H]3CCC4=CC(=O)C=C[C@]4(C)[C@@]3(F)[C@@H](O)C[C@]2(C)[C@@]1(O)C(=O)CO [DEXAMETHASONE] | 6.9
